{"source": "PubChem BioAssay AID248", "about": "(DTP/NCI, 2004)", "system": "L1210 leukemia ip in BDF1 mice, survival T/C", "test": "NCI In Vivo Anticancer Drug Screen. Data for tumor model L1210 Leukemia (intraperitoneal) in B6D2F1 (BDF1) mice", "conditions": "endpoint: mean survival time, higher = longer survival", "summary_of_the_method": "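In this screen, tumor-bearing mice given compound are compared to those given vehicle, and their survival values are reported as a treated-to-control quotient.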", "key": {"[1]": {"conditions": "dose: 100.0 mg/kg/injection, schedule: Q01DX009 (ip), vehicle: Klucel (hydroxypropylcellulose) (HPC)"}, "[2]": {"conditions": "dose: 100.0 mg/kg/injection, schedule: Q04DX003 (ip), vehicle: Klucel (hydroxypropylcellulose) (HPC)"}, "[3]": {"conditions": "dose: 200.0 mg/kg/injection, schedule: Q01DX009 (ip), vehicle: Klucel (hydroxypropylcellulose) (HPC)"}, "[4]": {"conditions": "dose: 200.0 mg/kg/injection, schedule: Q04DX003 (ip), vehicle: Klucel (hydroxypropylcellulose) (HPC)"}, "[5]": {"conditions": "dose: 400.0 mg/kg/injection, schedule: Q01DX009 (ip), vehicle: Klucel (hydroxypropylcellulose) (HPC)"}, "[6]": {"conditions": "dose: 400.0 mg/kg/injection, schedule: Q04DX003 (ip), vehicle: Klucel (hydroxypropylcellulose) (HPC)"}}, "note": "Inconclusive results and toxic doses are left out.", "data": [{"smiles": "Nc1c(Cl)c(Cl)c2c(c1Cl)/C(=N/O)c1cc(Cl)ccc1-2", "values": [{"measurement": "T/C", "setting": "dose: 100.0 mg/kg/injection, schedule: Q01DX001 (ip), vehicle: carboxymethylcellulose (CMC)", "value": "95 % of control"}, {"measurement": "T/C", "setting": "dose: 200.0 mg/kg/injection, schedule: Q01DX001 (ip), vehicle: carboxymethylcellulose (CMC)", "value": "95 % of control"}, {"measurement": "T/C", "setting": "dose: 400.0 mg/kg/injection, schedule: Q01DX001 (ip), vehicle: carboxymethylcellulose (CMC)", "value": "103 % of control"}]}, {"smiles": "Cc1cc(NC(=O)Nc2ccc(C3=NCCN3)cc2)ccc1NC(=O)Nc1ccc(C2=NCCN2)cc1", "values": [{"measurement": "T/C", "setting": "dose: 62.0 mg/kg/injection, schedule: Q01DX Z (ip), vehicle: carboxymethylcellulose (CMC)", "value": "124 % of control"}, {"measurement": "T/C", "setting": "dose: 250.0 mg/kg/injection, schedule: Q01DX Z (ip), vehicle: carboxymethylcellulose (CMC)", "value": "151 % of control"}]}, {"smiles": "CS(=O)(=O)c1ccc(/C=C2/C=Cc3ccccc32)cc1", "values": [{"measurement": "T/C", "setting": "[1]", "value": "95 % of control"}, {"measurement": "T/C", "setting": "[2]", "value": "96 % of control"}, {"measurement": "T/C", "setting": "[3]", "value": "103 % of control"}, {"measurement": "T/C", "setting": "[4]", "value": "96 % of control"}, {"measurement": "T/C", "setting": "[5]", "value": "95 % of control"}, {"measurement": "T/C", "setting": "[6]", "value": "98 % of control"}]}, {"smiles": "CC(C)N(C(=O)Nc1cccc(C(F)(F)F)c1)c1ccccc1", "values": [{"measurement": "T/C", "setting": "[1]", "value": "106 % of control"}, {"measurement": "T/C", "setting": "[3]", "value": "104 % of control"}, {"measurement": "T/C", "setting": "[5]", "value": "87 % of control"}]}, {"smiles": "O=c1nc2n(CC(O)C(O)C(O)CO)c3ccccc3cc-2c(=O)[nH]1", "note": "(stereo not given)", "values": [{"measurement": "T/C", "setting": "dose: 100.0 mg/kg/injection, schedule: Q01DX001 (ip), vehicle: saline", "value": "90 % of control"}, {"measurement": "T/C", "setting": "dose: 200.0 mg/kg/injection, schedule: Q01DX001 (ip), vehicle: saline", "value": "90 % of control"}, {"measurement": "T/C", "setting": "dose: 400.0 mg/kg/injection, schedule: Q01DX001 (ip), vehicle: saline", "value": "93 % of control"}]}, {"smiles": "Cc1ccc(C(=O)CCl)o1", "values": [{"measurement": "T/C", "setting": "dose: 100.0 mg/kg/injection, schedule: Q04DX003 (ip), vehicle: saline with Tween-80", "value": "106 % of control"}, {"measurement": "T/C", "setting": "dose: 200.0 mg/kg/injection, schedule: Q04DX003 (ip), vehicle: saline with Tween-80", "value": "116 % of control"}]}, {"smiles": "CC1(C)C2CCC13CC(=O)OC3C2", "note": "(stereo not given)", "values": [{"measurement": "T/C", "setting": "dose: 0.78 mg/kg/injection, schedule: Q01DX009 (ip), vehicle: saline", "value": "105 % of control"}, {"measurement": "T/C", "setting": "dose: 0.78 mg/kg/injection, schedule: Q04DX003 (ip), vehicle: acetone", "value": "101 % of control"}, {"measurement": "T/C", "setting": "dose: 1.56 mg/kg/injection, schedule: Q01DX009 (ip), vehicle: saline", "value": "100 % of control"}, {"measurement": "T/C", "setting": "dose: 1.56 mg/kg/injection, schedule: Q04DX003 (ip), vehicle: acetone", "value": "92 % of control"}, {"measurement": "T/C", "setting": "dose: 3.12 mg/kg/injection, schedule: Q01DX009 (ip), vehicle: saline", "value": "102 % of control"}, {"measurement": "T/C", "setting": "dose: 3.12 mg/kg/injection, schedule: Q04DX003 (ip), vehicle: acetone", "value": "98 % of control"}, {"measurement": "T/C", "setting": "dose: 4.6 mg/kg/injection, schedule: Q01DX009 (ip), vehicle: saline", "value": "89 % of control"}, {"measurement": "T/C", "setting": "dose: 7.0 mg/kg/injection, schedule: Q01DX009 (ip), vehicle: saline", "value": "91 % of control"}, {"measurement": "T/C", "setting": "dose: 10.5 mg/kg/injection, schedule: Q01DX009 (ip), vehicle: saline", "value": "104 % of control"}, {"measurement": "T/C", "setting": "dose: 15.0 mg/kg/injection, schedule: Q01DX009 (ip), vehicle: acetone", "value": "92 % of control"}]}, {"smiles": "CC1C(=O)C2C1CS2(=O)=O", "note": "(stereo not given)", "values": [{"measurement": "T/C", "setting": "dose: 100.0 mg/kg/injection, schedule: Q04DX002 (ip), vehicle: DMSO", "value": "97 % of control"}, {"measurement": "T/C", "setting": "dose: 200.0 mg/kg/injection, schedule: Q04DX002 (ip), vehicle: DMSO", "value": "97 % of control"}, {"measurement": "T/C", "setting": "dose: 400.0 mg/kg/injection, schedule: Q04DX002 (ip), vehicle: DMSO", "value": "91 % of control"}]}, {"smiles": "CC(C)(C)C(O)C1CCCS1(=O)=O", "note": "(stereo not given)", "values": [{"measurement": "T/C", "setting": "dose: 50.0 mg/kg/injection, schedule: Q01DX001 (ip), vehicle: Klucel (hydroxypropylcellulose) (HPC)", "value": "96 % of control"}]}, {"smiles": "O=[N+]([O-])c1ccc(NN(c2ccccc2)c2ccccc2)c([N+](=O)[O-])c1", "values": [{"measurement": "T/C", "setting": "[2]", "value": "98 % of control"}, {"measurement": "T/C", "setting": "[4]", "value": "97 % of control"}, {"measurement": "T/C", "setting": "[6]", "value": "90 % of control"}]}, {"smiles": "O=[N+]([O-])c1cccc(N=Cc2ccc3c(c2)OCO3)c1", "values": [{"measurement": "T/C", "setting": "dose: 100.0 mg/kg/injection, schedule: Q01DX009 (ip), vehicle: saline", "value": "96 % of control"}, {"measurement": "T/C", "setting": "dose: 200.0 mg/kg/injection, schedule: Q01DX009 (ip), vehicle: saline", "value": "93 % of control"}, {"measurement": "T/C", "setting": "dose: 400.0 mg/kg/injection, schedule: Q01DX009 (ip), vehicle: saline", "value": "100 % of control"}]}, {"smiles": "O=C(O)c1ccccc1[N+](=O)[O-].[Ag]", "values": [{"measurement": "T/C", "setting": "dose: 12.5 mg/kg/injection, schedule: Q04DX003 (ip), vehicle: saline with Tween-80", "value": "90 % of control"}, {"measurement": "T/C", "setting": "dose: 25.0 mg/kg/injection, schedule: Q04DX003 (ip), vehicle: saline with Tween-80", "value": "107 % of control"}, {"measurement": "T/C", "setting": "dose: 50.0 mg/kg/injection, schedule: Q04DX003 (ip), vehicle: saline with Tween-80", "value": "91 % of control"}]}, {"smiles": "CCOC(=O)c1[nH]c(C)c(C(=O)OCc2ccccc2)c1CCC(=O)O", "values": [{"measurement": "T/C", "setting": "dose: 75.0 mg/kg/injection, schedule: Q01DX001 (ip), vehicle: saline with Tween-80", "value": "92 % of control"}, {"measurement": "T/C", "setting": "dose: 150.0 mg/kg/injection, schedule: Q01DX001 (ip), vehicle: saline with Tween-80", "value": "97 % of control"}, {"measurement": "T/C", "setting": "dose: 300.0 mg/kg/injection, schedule: Q01DX001 (ip), vehicle: saline with Tween-80", "value": "100 % of control"}]}, {"smiles": "C=CNC(=O)Oc1ccccc1", "values": [{"measurement": "T/C", "setting": "dose: 100.0 mg/kg/injection, schedule: Q01DX001 (ip), vehicle: other", "value": "96 % of control"}, {"measurement": "T/C", "setting": "dose: 200.0 mg/kg/injection, schedule: Q01DX001 (ip), vehicle: other", "value": "100 % of control"}, {"measurement": "T/C", "setting": "dose: 400.0 mg/kg/injection, schedule: Q01DX001 (ip), vehicle: other", "value": "91 % of control"}]}, {"smiles": "Cc1n(CCBr)c([N+](=O)[O-])c[n+]1C1N=C(c2ccccc2)c2cc(Cl)ccc2NC1=O", "note": "(stereo not given)", "values": [{"measurement": "T/C", "setting": "[2]", "value": "101 % of control"}, {"measurement": "T/C", "setting": "[4]", "value": "94 % of control"}]}]}
